Experimental data: patent US9757360B2, “Pharmaceutical composition comprising a ryanodine receptor antagonist for facilitating wound healing” (SZEGEDI TUDOMÁNYEGYETEM, priority 2013, dated 2017)

Legend:
[1] = system: full-thickness dermal wound; test: Macroscopic wound closure of full-thickness dermal wounds in a dorsal skin fold chamber (photo documentation); type: in vivo, SKH-1 hairless mice; conditions: for Rate of wound closure vs control group: 100 μM topical once a day
Text: In our experiments, we have studied the effects of dantrolene on different parameters of wound healing. SKH-1 hairless male mice were used in the experiments. Full-thickness wound was made in a dorsal skin fold. The effects of dantrolene or saline (control group) on wound healing were monitored by means of photo documentation, intravital videomicroscopy (IVM) and laser Doppler flowmetry. The experimental setup was in accordance with the model described by Sorg et al. (Sorg et al., 2007). Wounds were treated daily either with dantrolene or with saline.
(§1) The experiments were performed on male SKH-1 hairless mice of our own rearing (body weight: 36-44 g). Procedures and protocols were approved by the competent authorities (license number: V./145/2013.). Only healthy animals free of any type of injury were used, mice with any sign of disorders were discarded. Prior to the interventions the animals were anesthetized with a mixture of ketamine (Sigma) (90 mg/kg) and xylazine (Sigma) (25 mg/kg) administered intraperitoneally. A skin fold was formed in the dorsal region and was fixed with two symmetrical, fenestrated titanium plates (IROLA GmbH, Schonach, Germany) according to the description of Sorg et al. (Sorg et al., 2007).
(§2) In the midline of the dorsal region two holding stitches were placed in order to form a skin fold. This skin fold was sandwiched by two symmetrical, fenestrated titanium plates. The plates were fixed with sutures, bolts and nuts. On one side of the skin fold, a circular full-thickness wound was made by removing the tissue down to muscle layer of the other side (the diameter of the wound was 4 mm while those of used for Laser-Doppler flowmetry came to 11 mm). The wound was covered with a glass coverslip incorporated into the window of the titanium frame. The glass was removed for the duration of treatments and measurements only. […]
Macroscopic wound closure. […] The images were evaluated with a software developed by our working group (DermAssess©). […]

[2] = system: microcirculation of the wound edges; test: Intravital videomicroscopy (IVM) of the microcirculation of the wound edges; type: in vivo, SKH-1 hairless mice; conditions: 100 μM topical once a day
Description: as §1
In the midline of the dorsal region two holding stitches were placed in order to form a skin fold. This skin fold was sandwiched by two symmetrical, fenestrated titanium plates. The plates were fixed with sutures, bolts and nuts. On one side of the skin fold, a circular full-thickness wound was made by removing the tissue down to muscle layer of the other side (the diameter of the wound was 4 mm while those of used for Laser-Doppler flowmetry came to 11 mm). The wound was covered with a glass coverslip incorporated into the window of the titanium frame. The glass was removed for the duration of treatments and measurements only. In the control group (n=6), the wounds were treated with 100 μL of sterile saline once a day while in the dantrolene-treated group (n=6) 100 μL of a solution containing the sodium salt of dantrolene (100 μM) was applied to the wound once a day (the salt was dissolved in sterile saline). The observation period took 20 days (according to our previous results this is the time period needed for approximately 100% closure of wounds of 4 mm).
Intravital videomicroscopy (IVM). Microcirculation of the wound edges was monitored by means of IVM on days 4, 8 and 12. After anesthesia, 80 μL of a solution of fluorescein-isothyocyanate (FITC) labeled dextrane (2%) and also 80 μL of a solution of rhodamine-6G was administered retrobulbar. These contrast materials allow us to visualize microcirculation and leukocyte-endothelial interactions at the appropriate wavelengths. Video records of the microcirculation were evaluated off-line with Pictron IVM software. Red blood cell velocity (RBCV) was determined in the capillaries, the diameter of each vessel in the evaluated fields-of-view was measured (only diameters above 6 μm were considered) and sticking leukocytes were counted in the postcapillary venules (this parameter is relative to the area of the vessel wall and is given as cell/μm2).
Control- and dantrolene-treated groups were compared with the Mann-Whitney test and p<0.05 was considered statistically significant.

[3] = system: blood flow of the wound area; test: Laser-Doppler flowmetry of the wound area; type: in vivo, SKH-1 hairless mice; conditions: day 1 after wound creation; 200 μL dantrolene solution, measured 10 minutes later; 11 mm wound
Description: as §1, §2

[4] = system: full-thickness dermal wound; test: Histology of excised wounds (epithelialization zone, dermal regeneration); type: in vivo, SKH-1 hairless mice; conditions: day 4; 100 μM topical once a day
Description: as §1
In the midline of the dorsal region two holding stitches were placed in order to form a skin fold. This skin fold was sandwiched by two symmetrical, fenestrated titanium plates. The plates were fixed with sutures, bolts and nuts. […]
Histology. […] Zone of epithelialization was defined as the extension of epithelial regeneration measured from the wound edges and given as percentage relative to the initial diameter of the wound. Dermal regeneration was determined, too (thickness of dermal connective tissue was measured within the wound area and was given as percentage relative to that of determined in the intact skin). […]

[5] = system: epidermal barrier function; conditions: cited from earlier work

O=C1CN(/N=C/c2ccc(-c3ccc([N+](=O)[O-])cc3)o2)C(O)=N1 [dantrolene]
Macroscopic wound closure (decrease in wound area relative to baseline) ([1]; by day 20, 100 μL of 100 μM dantrolene sodium salt solution on the wound once a day, 4 mm wound): ~100% | Rate of wound closure vs control group ([1]; day 16): no difference | Rate of wound closure vs control group ([1]; days 4, 8 and 12, p<0.05 vs saline control): significantly higher | Number of sticking leukocytes in the postcapillary venules, difference vs control ([2]; day 12): not statistically significant | Vessel diameters at the wound edges vs control group ([2]; days 4, 8 and 12 (corresponding times)): considerably higher | Red blood cell velocity (RBCV) in the capillaries vs control group ([2]; days 4, 8 and 12): higher | Number of sticking leukocytes in the postcapillary venules vs control ([2]; days 4 and 8): significantly decreased | Blood flow in the wound area after vs before dantrolene treatment [3]: significant elevation | Dermal regeneration vs control group [4]: more expressed | Extension of epithelialization zone vs control [4]: more extended | Barrier regeneration ([5]; local application, after removal of the uppermost layer of the epidermis): accelerates | Transepidermal water loss ([5]; mice with barrier function impaired after tape stripping of the upper epidermis): ameliorate
